Results reported in patent US9790252B2, “2-fluorinated riboses and arabinoses and methods of use and synthesis” (CORNELL UNIVERSITY, priority 2009, dated 2017).

Columns and labels:
[1] = biological target: T1, SirT1 (Homo sapiens, UniProt Q96EB6); experiment: SirT1 activity assay (HPLC of 2′- and 3′-AADPR); format: biochemical; conditions: 200 μM NAD+, 100 μM JB12 peptide; for SirT1 Ki / Ki: pH 7.5, 30 mins at 37° C.; for SirT1 inhibition (in words): pH 7.5
T1 sequence (Q96EB6 1-747): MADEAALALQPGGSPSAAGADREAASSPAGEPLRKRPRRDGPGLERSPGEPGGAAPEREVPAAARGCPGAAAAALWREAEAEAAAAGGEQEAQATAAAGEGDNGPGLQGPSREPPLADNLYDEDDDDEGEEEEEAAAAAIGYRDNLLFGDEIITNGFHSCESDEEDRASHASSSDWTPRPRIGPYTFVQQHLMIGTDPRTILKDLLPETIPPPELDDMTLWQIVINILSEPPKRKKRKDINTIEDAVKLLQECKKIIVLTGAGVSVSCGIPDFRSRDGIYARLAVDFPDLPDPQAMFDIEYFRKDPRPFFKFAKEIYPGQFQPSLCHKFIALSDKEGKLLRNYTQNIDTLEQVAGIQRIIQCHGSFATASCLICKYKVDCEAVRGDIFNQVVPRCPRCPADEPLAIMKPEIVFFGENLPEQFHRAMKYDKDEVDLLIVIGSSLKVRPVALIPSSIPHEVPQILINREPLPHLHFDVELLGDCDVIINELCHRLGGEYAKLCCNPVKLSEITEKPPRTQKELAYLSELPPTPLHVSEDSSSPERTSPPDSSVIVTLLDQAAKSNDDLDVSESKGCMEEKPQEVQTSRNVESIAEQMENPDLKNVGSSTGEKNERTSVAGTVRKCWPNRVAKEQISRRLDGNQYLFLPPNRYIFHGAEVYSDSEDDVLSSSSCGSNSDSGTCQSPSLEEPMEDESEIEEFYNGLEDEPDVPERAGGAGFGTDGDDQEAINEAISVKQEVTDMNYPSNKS
Method: (§1) Reactions containing 200 μM NAD^+, 100 μM JB12 peptide, and 100 mM phosphate buffer at pH 7.5, with varying concentrations of 2′-deoxy-2′-fluoro-nucleosides or nucleotides were initiated by addition of SirT1 enzyme to a concentration of 12.9 μM. Reactions were incubated for 30 mins at 37° C. and quenched by addition of trifluoroacetic acid to pH 2. After centrifugation to remove precipitates, reactions were injected on HPLC for activity analysis. Production of 2′- and 3′-AADPR were analyzed at 260 nm.
as §1, with “SirT1 Activity Assay: Reactions containing” for “Reactions containing”, “concentrations of 2′-deoxy-2′-chloro-nucleosides were initiated” for “concentrations of 2′-deoxy-2′-fluoro-nucleosides or nucleotides were initiated”

[2] = biological target: T2, SirT2 (Homo sapiens, UniProt Q8IXJ6); experiment: SirT2 activity assay (HPLC of 2′- and 3′-AADPR); format: biochemical; conditions: 800 μM NAD+, 500 μM H3 peptide, pH 7.5, 45 mins at 37° C.
T2 sequence (Q8IXJ6 1-389): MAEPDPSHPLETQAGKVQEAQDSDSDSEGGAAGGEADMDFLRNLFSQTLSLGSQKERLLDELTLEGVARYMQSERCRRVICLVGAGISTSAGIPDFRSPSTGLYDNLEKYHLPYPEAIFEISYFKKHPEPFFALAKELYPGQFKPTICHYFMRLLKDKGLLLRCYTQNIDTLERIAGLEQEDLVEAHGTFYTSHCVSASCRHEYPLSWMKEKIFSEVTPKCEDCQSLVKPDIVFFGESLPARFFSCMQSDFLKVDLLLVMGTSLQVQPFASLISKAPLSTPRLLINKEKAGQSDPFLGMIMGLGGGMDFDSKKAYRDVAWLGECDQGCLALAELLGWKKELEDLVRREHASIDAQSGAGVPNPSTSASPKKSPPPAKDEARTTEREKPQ
Method: as §1, with “containing 800” for “containing 200”, “NAD^+, 500” for “NAD^+, 100”, “μM H3” for “μM JB12”, “of SirT2” for “of SirT1”, “of 16.6” for “of 12.9”, “for 45” for “for 30”
SirT2 Activity Assay: Reactions containing 800 μM NAD^+, 500 μM H3 peptide, and 100 mM phosphate buffer at pH 7.5, with varying concentrations of 2′-deoxy-2′-chloro-nucleosides were initiated by addition of SirT2 enzyme to a concentration of 16.6 μM. Reactions were incubated for 45 mins at 37° C. and quenched by addition of trifluoroacetic acid to pH 2. After centrifugation to remove precipitates, reactions were injected on HPLC for activity analysis. Production of 2′- and 3′-AADPR were analyzed at 260 nm.

[3] = system: HEK293 cells; experiment: Toxicity to HEK293 cells (MTT); format: cell-based; conditions: for 100 μM absorbance / 100 μM relative viability: HEK293, 100 μM; for 100 μM absorbance / 100 μM relative viability / 500 μM absorbance / 500 μM relative viability: 12 hours; for 100 μM absorbance / 500 μM absorbance: 570 nm; for 100 μM relative viability / 500 μM relative viability: control = 1; for 500 μM absorbance / 500 μM relative viability: HEK293, 500 μM
Method: 1. HEK293 cells were seeded in 96-well plate at a density of 25,000 cells/well the day before the experiment starts;
2. After the cells reach 50˜60% confluency, media was taken out, and 100 μL of fresh media was added to each well;
3. F-derivatives were plated at 100 and 500 μM (in duplicates) concentrations;
4. After 12 hours' incubation at 37° C., the media was taken out, 100 μL of fresh media was added to each well along with 20 μL of 5 mg/mL of MTT solution (in PBS);
5. After 1.5 hours' incubation at 37° C., media was taken out and 100 μL of DMSO was added to each well, the plate was mixed on shaker for 5 mins;
Absorbance was measured at 570 nm.
Assay for Determining Toxicity to HEK293 and Neuro2A Cells • 1. HEK293 and Neuro2A cells were seeded in 96-well plate at a density of 25,000 cells/well the day before the experiment starts; • 2. After the cells reach 50˜60% confluency, media was taken out, and 100 μL of fresh media was added to each well; • 3. Cl-derivatives were plated at 100 and 500 μM (in duplicates) concentrations; • 4. After 12 hours' incubation at 37° C., the media was taken out, 100 μL of fresh media was added to each well along with 20 μL of 5 mg/mL of MTT solution (in PBS); • 5. After 2 hours' incubation at 37° C., media was taken out and 100 μL of DMSO was added to each well, the plate was mixed on shaker for 5 mins; • 6. Absorbance was measured at 570 nm.

[4] = Homo sapiens, HEK293, HEK293, 2′-deoxy-2′-fluoro-nucleosides and nucleotides
[5] = MTT 2 hours, chloro-nucleosides

| Structure (SMILES) | SirT1 Ki [1] | Ki [2] [µM] | Ki [1] [µM] | SirT1 inhibition (in words) [1] | SirT2 Ki [2] | 100 μM absorbance ([3]; MTT 1.5 hours) | 100 μM relative viability [3] | 500 μM absorbance ([3]; MTT 1.5 hours) | 500 μM relative viability [3] | EC50 [3, 4] [µM] | EC50 ([3]; HEK293, 2′-deoxy-2′-fluoro-nucleosides and nucleotides) [µM] | 100 μM absorbance [3, 5] | 100 μM relative viability ([3]; chloro-nucleosides) | 500 μM absorbance [3, 5] | 500 μM relative viability ([3]; chloro-nucleosides) | EC50 ([3]; Homo sapiens, HEK293, HEK293, 2′-deoxy-2′-chloro-nucleosides) [µM] | kills % of HEK293 cells ([3]; HEK293, at 500 μM) |
| --- | --- | --- | --- | --- | --- | --- | --- | --- | --- | --- | --- | --- | --- | --- | --- | --- | --- |
| NC(=O)c1ccc[n+]([C@@H]2O[C@H](CO)C(O)C2F)c1 (stereo partly shown) [ara-F-NR, 1-(2′-deoxy-2′-fluoro-arabinofuranosyl)-nicotinamide] | Ki = high mM | 2300 | – | – | – | 1.5325 | 0.6741 | 1.25 | 0.5499 | 550 | – | – | – | – | – | – | – |
| NC(=O)c1ccc[n+]([C@@H]2O[C@H](CO)[C@@H](O)C2(F)F)c1 [gem-diF-NR, 1-(2′-deoxy-2′,2′-difluoro-ribofuranosyl)-nicotinamide] | – | – | – | no inhibition | Ki = high mM | 1.679 | 0.7386 | 1.43 | 0.6289 | 846 | – | – | – | – | – | – | – |
| NC(=O)c1ccc[n+]([C@@H]2O[C@H](CO)C(O)[C@@H]2F)c1 (stereo partly drawn) [ribo-F-NR, 1-(2-deoxy-2-fluoro-D-ribofuranosyl)-nicotinamide] | – | 1730 | 200 | – | – | 0.019 | 0.008358 | 0.0015 | 0.00066 | 17 | – | – | – | – | – | – | – |
| NC(=O)c1ccc[n+]([C@@H]2O[C@H](CO)C(O)C2Cl)c1 (stereo partly drawn) [β-ara-Cl-NR, 1-(2′-deoxy-2′-chloro-arabinofuranosyl)-nicotinamide] | Ki = high mM | 3200 | – | – | – | – | – | – | – | – | – | 0 | 0 | 0 | 0 | 5 | – |

More lines, main results first:

| SirT1 Ki [1] | Ki [2] [µM] | Ki [1] [µM] | SirT1 inhibition (in words) [1] | SirT2 Ki [2] | Structure (SMILES) | 100 μM absorbance ([3]; MTT 1.5 hours) | 100 μM relative viability [3] | 500 μM absorbance ([3]; MTT 1.5 hours) | 500 μM relative viability [3] | EC50 [3, 4] [µM] | EC50 ([3]; HEK293, 2′-deoxy-2′-fluoro-nucleosides and nucleotides) [µM] | 100 μM absorbance [3, 5] | 100 μM relative viability ([3]; chloro-nucleosides) | 500 μM absorbance [3, 5] | 500 μM relative viability ([3]; chloro-nucleosides) | EC50 ([3]; Homo sapiens, HEK293, HEK293, 2′-deoxy-2′-chloro-nucleosides) [µM] | kills % of HEK293 cells ([3]; HEK293, at 500 μM) |
| --- | --- | --- | --- | --- | --- | --- | --- | --- | --- | --- | --- | --- | --- | --- | --- | --- | --- |
| – | 162 | 18 | – | – | NC(=O)c1ccc[n+]([C@@H]2O[C@H](COP(=O)([O-])O)C(O)C2(F)F)c1 (stereo partly shown) [gem-diF-NMN, 2′-deoxy-2′,2′-difluoro-ribo-nicotinamide mononucleotide] | 1.559 | 0.6858 | 0 | 0 | 118 | – | – | – | – | – | – | – |
| – | 450 | – | no inhibition | – | NC(=O)c1ccc[n+]([C@@H]2O[C@H](COP(=O)([O-])O)C(O)C2F)c1 (stereo partly shown) [ribo-F-NMN, 2′-deoxy-2′-fluoro-ribo-nicotinamide mononucleotide] | 1.2275 | 0.54 | 0.9845 | 0.4331 | – | 241 | – | – | – | – | – | – |
| – | 403 | 780 | – | – | NC(=O)c1ccc[n+]([C@@H]2O[C@H](CO)C(O)C2(Cl)Cl)c1 (stereo partly drawn) [β-gem-diCl-NR, 1-(2′-deoxy-2′,2′-dichloro-ribofuranosyl)-nicotinamide] | – | – | – | – | – | – | 2.05 | 0.8436 | 1.63 | 0.6708 | – | kills 30% at 500 μM |
